The source of these data is PubChem BioAssay AID602311 (The Scripps Research Institute Molecular Screening Center, 2012).

Activity calls are given as the source filed them. How the calls were made is not given here.

Holding throughout (assay): ABPP selectivity across brain serine hydrolases – biochemical, gel-based competitive ABPP, mouse brain membrane, set 1, selectivity assay for DAGLb inhibitor project, late-stage follow-up (AID 602311)
The target of assay [1] is Monoacylglycerol lipase ABHD6 (Mus musculus) (UniProt Q8R2Y0). To be noted: gel-based competitive ABPP fluorescence, at 10 µM, stronger effect = higher value.
The subject of assay [2] is APEH. To be noted: gel-based competitive ABPP fluorescence, at 10 µM, stronger effect = higher value.
Assay [3] has as its system KIAA1363. To be noted: gel-based competitive ABPP fluorescence, at 10 µM, stronger effect = higher value.
The test system of assay [4] is MAGL. The following applies: gel-based competitive ABPP fluorescence, at 10 µM, stronger effect = higher value.
For assay [5], the system named is FAAH. The following applies: gel-based competitive ABPP fluorescence, at 10 µM, stronger effect = higher value.
In assay [6] the test system is LYPLA2. To be noted: gel-based competitive ABPP fluorescence, at 10 µM, stronger effect = higher value.
Assay [7] deals with ABHD12. To be noted: gel-based competitive ABPP fluorescence, at 10 µM, stronger effect = higher value.
Assay [8] concerns the target Acyl-protein thioesterase 1 (Mus musculus) (UniProt P97823). To be noted: gel-based competitive ABPP fluorescence, LYPLA1, at 10 µM, stronger effect = higher value.

Chain of Acyl-protein thioesterase 1 (Mus musculus) (P97823 whole entry, looked up): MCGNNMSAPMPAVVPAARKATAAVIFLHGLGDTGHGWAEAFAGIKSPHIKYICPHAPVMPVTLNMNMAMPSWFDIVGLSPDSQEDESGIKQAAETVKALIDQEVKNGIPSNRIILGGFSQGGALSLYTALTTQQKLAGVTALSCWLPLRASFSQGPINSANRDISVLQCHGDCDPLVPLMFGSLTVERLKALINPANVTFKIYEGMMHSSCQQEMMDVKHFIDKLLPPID
Chain of Monoacylglycerol lipase ABHD6 (Mus musculus) (Q8R2Y0 whole entry, looked up): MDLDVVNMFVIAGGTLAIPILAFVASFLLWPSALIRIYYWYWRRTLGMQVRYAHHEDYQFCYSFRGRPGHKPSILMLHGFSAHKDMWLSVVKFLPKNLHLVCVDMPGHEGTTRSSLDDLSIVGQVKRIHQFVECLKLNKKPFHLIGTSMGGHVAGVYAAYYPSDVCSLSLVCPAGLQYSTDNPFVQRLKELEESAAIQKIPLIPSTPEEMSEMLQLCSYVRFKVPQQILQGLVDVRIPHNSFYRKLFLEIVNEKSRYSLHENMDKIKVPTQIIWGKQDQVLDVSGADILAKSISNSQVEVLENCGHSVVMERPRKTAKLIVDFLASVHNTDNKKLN

With `O=C(N1CCCCC1Cc1ccccc1)n1cc(-c2cc(F)cc(F)c2)nn1` (stereo not drawn), the inhibition was 90% in assay [1]; 0% (inactive) in assay [2]; 85% in assay [3]; 95% in assay [4]; 98% in assay [5]; 50% in assay [6]. Besides, the inhibition is 0% (inactive) in assay [7] and 50% in assay [8].
As to `COc1ccccc1-c1ccc(-c2cn(C(=O)N3CCCCC3Cc3ccccc3)nn2)cc1` (stereo not drawn), the inhibition is 85% in assay [1]; 0% (inactive) in assay [2]; 0% (inactive) in assay [3]; 70% in assay [4]; 10% (inactive) in assay [5]; 0% (inactive) in assay [6]. The inhibition in assay [7] and in assay [8] was 0% (inactive) in each case.
Take `O=C(N1CCCCC1Cc1ccccc1)n1cc(-c2cccc(-c3ccccc3)c2)nn1` (stereo not drawn): the inhibition in assay [1] is 85%; in assay [2], 0% (inactive); in assay [3] it was 0% (inactive); in assay [4], 80%; in assay [5], 65%; in assay [6], 0% (inactive). In addition, the inhibition in assay [7] and in assay [8] was 0% (inactive) throughout.
For `O=C(N1CCCCC1Cc1ccccc1)n1cc(-c2ccc(-c3ccccc3C(F)(F)F)cc2)nn1` (stereo not drawn), the inhibition in assay [1] was 80%; in assay [2] it was 0% (inactive); in assay [3] it was 0% (inactive); in assay [4], 1% (inactive); in assay [5], 40% (inactive); in assay [6], 0% (inactive). Moreover, the inhibition in assay [7] and in assay [8] was 0% (inactive) in each case.
As for `O=C(N1CCCCC1Cc1ccccc1)n1cc(-c2ccc(-c3ccccc3OC(F)(F)F)cc2)nn1` (stereo not drawn), the inhibition in assay [1] is 85%; in assay [2], 0% (inactive); in assay [3], 25% (inactive); in assay [4], 60%; in assay [5], 45% (inactive); in assay [6], 0% (inactive). In addition, the inhibition in assay [7] and in assay [8] was 0% (inactive) throughout.
Take `Cc1ccccc1-c1ccc(-c2cn(C(=O)N3CCCCC3Cc3ccccc3)nn2)cc1` (stereo not drawn): the inhibition in assay [1] is 98%; in assay [2], 0% (inactive); in assay [3], 0% (inactive); in assay [4], 0% (inactive); in assay [5] it was 30% (inactive); in assay [6], 0% (inactive). For the same compound, the inhibition in assay [7] and in assay [8] was 0% (inactive) each time.
In the case of `O=C(N1CCCCC1Cc1ccccc1)n1ncc(C(O)(c2ccccc2)c2ccccc2)n1` (stereo not drawn), the inhibition was 85% in assay [1]; 0% (inactive) in assay [2]; 0% (inactive) in assay [3]; 0% (inactive) in assay [4]; 0% (inactive) in assay [5]; 0% (inactive) in assay [6]. Moreover, the inhibition in assay [7] and in assay [8] was 0% (inactive) in each case.
For `CC(C)(C)OC(=O)NCCCCCN(CCc1ccccc1)C(=O)n1cc(-c2ccc(OC(F)(F)F)cc2)nn1`, the inhibition in assay [1] is 95%; in assay [2], 0% (inactive); in assay [3] it was 0% (inactive); in assay [4] it was 10% (inactive); in assay [5], 0% (inactive); in assay [6], 0% (inactive). Further, the inhibition in assay [7] and in assay [8] was 0% (inactive) throughout.
With `O=C(N1CCCCC1Cc1ccccc1)n1cc(-c2ccc(Br)cc2)nn1` (stereo not drawn), the inhibition in assay [1] is 90%; in assay [2], 0% (inactive); in assay [3], 0% (inactive); in assay [4] it was 90%; in assay [5] it was 90%; in assay [6], 0% (inactive). For the same compound, the inhibition in assay [7] and in assay [8] was 0% (inactive) each time.
On to `O=C(N(CCc1ccccc1)Cc1ccco1)n1cc(-c2ccc(OC(F)(F)F)cc2)nn1`, for which the inhibition in assay [1] is 95%; in assay [2], 0% (inactive); in assay [3] it was 55%; in assay [4] it was 10% (inactive); in assay [5], 95%; in assay [6], 0% (inactive). The inhibition in assay [7] and in assay [8] was 0% (inactive) in each case.
Turning to `O=C(N1CCCCC1Cc1ccccc1)n1cc(-c2ccc(-c3ccccc3CO)cc2)nn1` (stereo not drawn), the inhibition in assay [1] is 95%; in assay [2] it was 0% (inactive); in assay [3], 0% (inactive); in assay [4] it was 95%; in assay [5], 55%; in assay [6] it was 20% (inactive). Further, the inhibition in assay [7] is 10% (inactive); in assay [8] it was 20% (inactive).
Take `O=C(N1CCCCC1Cc1ccccc1)n1cc(-c2ccc(-c3ccc(C(F)(F)F)cc3)cc2)nn1` (stereo not drawn): the inhibition in assay [1] is 90%; in assay [2], 0% (inactive); in assay [3], 60%; in assay [4], 10% (inactive); in assay [5], 55%; in assay [6] it was 0% (inactive). Also, the inhibition in assay [7] and in assay [8] was 0% (inactive) in each case.
On to `O=C(N1CCCCC1Cc1ccccc1)n1cc(-c2ccc(-c3ccc(OC(F)(F)F)cc3)cc2)nn1` (stereo not drawn), for which the inhibition in assay [1] is 90%; in assay [2], 0% (inactive); in assay [3] it was 55%; in assay [4], 0% (inactive); in assay [5], 45% (inactive); in assay [6], 0% (inactive). The inhibition in assay [7] and in assay [8] was 0% (inactive) throughout.
As for `O=C(c1ccc(-c2cn(C(=O)N3CCCCC3Cc3ccccc3)nn2)cc1)N1CCCCC1` (stereo not drawn), the inhibition in assay [1] is 98%; in assay [2], 0% (inactive); in assay [3] it was 0% (inactive); in assay [4], 0% (inactive); in assay [5], 55%; in assay [6] it was 25% (inactive). The figures for the inhibition in assay [7] and in assay [8] were 0% (inactive) and 25% (inactive), respectively.
For the compound `O=C(N1CCCCC1Cc1ccccc1)n1ncc(-c2ccc(OC(F)(F)F)cc2)n1` (stereo not drawn), the inhibition in assay [1] is 85%; in assay [2], 0% (inactive); in assay [3] it was 90%; in assay [4] it was 0% (inactive); in assay [5] it was 98%; in assay [6], 0% (inactive). Also, the inhibition in assay [7] and in assay [8] was 0% (inactive) in each case.
Consider `O=C(N1CCCCC1Cc1ccccc1)n1cc(-c2ccc(-c3ccoc3)cc2)nn1` (stereo not drawn), for which the inhibition was 98% in assay [1]; 0% (inactive) in assay [2]; 0% (inactive) in assay [3]; 10% (inactive) in assay [4]; 40% (inactive) in assay [5]; 0% (inactive) in assay [6]. Further, the inhibition in assay [7] and in assay [8] was 0% (inactive) throughout.
Take `O=C(N1CCCCC1c1ccccc1)n1cc(C(O)(c2ccccc2)c2ccccc2)nn1` (stereo not drawn): the inhibition in assay [1] was 100%; in assay [2], 95%; in assay [3] it was 100%; in assay [4], 0% (inactive); in assay [5] it was 55%; in assay [6] it was 100%. Also, the inhibition in assay [7] was 0% (inactive); in assay [8], 100%.
Take `CC(C)CN(CCc1ccccc1)C(=O)n1cc(-c2ccc(OC(F)(F)F)cc2)nn1`: the inhibition is 90% in assay [1]; 0% (inactive) in assay [2]; 0% (inactive) in assay [3]; 0% (inactive) in assay [4]; 0% (inactive) in assay [5]; 0% (inactive) in assay [6]. The inhibition in assay [7] and in assay [8] was 0% (inactive) each time.
Regarding `O=C(N1CCCCC1Cc1ccccc1)n1cc(-c2ccc(-c3cccc(CO)c3)cc2)nn1` (stereo not drawn), the inhibition in assay [1] was 90%; in assay [2] it was 0% (inactive); in assay [3], 0% (inactive); in assay [4], 10% (inactive); in assay [5] it was 40% (inactive); in assay [6], 0% (inactive). The inhibition in assay [7] and in assay [8] was 0% (inactive) in each case.
As for `O=C(N1CCCCC1Cc1ccccc1)n1cc(-c2ccccc2-c2ccccc2)nn1` (stereo not drawn), the inhibition was 80% in assay [1]; 0% (inactive) in assay [2]; 0% (inactive) in assay [3]; 75% in assay [4]; 98% in assay [5]; 10% (inactive) in assay [6]. For the same compound, the inhibition in assay [7] is 0% (inactive); in assay [8], 10% (inactive).
In the case of `O=C(N1CCCCC1Cc1ccccc1)n1cc(-c2ccc(-c3ccc4c(c3)OCO4)cc2)nn1` (stereo not drawn), the inhibition in assay [1] was 90%; in assay [2] it was 0% (inactive); in assay [3], 0% (inactive); in assay [4] it was 0% (inactive); in assay [5], 50%; in assay [6], 0% (inactive). Further, the inhibition in assay [7] and in assay [8] was 0% (inactive) in each case.

For orientation: inhibition means the share of the control response that was lost under treatment.
